Measured values published in patent publication US8207189B2, “Compound having affinity for amyloid” (Nihon Medi-Physics Co., Ltd., priority 2007, dated 2012).

Tests used:
[1] = molecular target: T1, amyloid (aggregated Aβ1-42) injected into amygdaloid nucleus (Homo sapiens, UniProt P05067); experiment: confirmation of imaging of amyloid in brain (autoradiogram, Aβ1-42 injected rats); type: in vivo, rat; conditions: brain slice 60 minutes after intravenous injection, Aβ1-42
T1 construct: Aβ1-42 (manufactured by Wako) was dissolved in phosphate buffer (pH 7.4); purchased Wako
T1 sequence (P05067 672-713): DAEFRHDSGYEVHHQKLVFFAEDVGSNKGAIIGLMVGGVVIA
Method: (§1) (1) Aβ1-42 (manufactured by Wako) was dissolved in phosphate buffer (pH 7.4) and shaken at 37° C. for 72 hours, to obtain a 1 mg/mL suspension of aggregated Aβ (hereinafter referred to as amyloid suspension in the Examples).
(§2) (2) 2.5 μL (corresponding to […]) of the amyloid suspension was injected into an amygdaloid nucleus on one side of a male Wistar rat (7-week old). As a control, 2.5 μL of a phosphate buffered physiological saline solution (pH 7.4) was injected into an amygdaloid nucleus on the other side of the rat. The rats were examined 1 day after the injection of the amyloid suspension and the phosphate buffered physiological saline solution (pH 7.4).
(§3) (3) Compound 1 was dissolved in a 10 mg/mL ascorbic acid-containing physiological saline solution to obtain a sample solution (22 MBq/mL in radioactivity concentration in the sample solution). This solution was injected under thiopental anesthesia into the rat through the tail vein (dosage: 0.5 mL, dosed radioactivity: 11-13 MBq equivalent).
(§4) (4) Brain was removed 60 minutes after the injection to prepare a brain slice of 10 μm in thickness with a microtome (type: CM3050S, manufactured by LEICA). The brain slice was exposed to an imaging plate for 20 hours, and then image analysis was carried out by use of a Bio-imaging Analyzer (type: BAS-2500; manufactured by FUJIFILM Corporation).
(§5) Thus, it was confirmed that amyloid was deposited on the slice (FIG. 6b).
(§6) The same procedures as in Example 12 were performed except using a solution of Compound 2 in a 10 mg/mL ascorbic acid as a sample solution (the radioactive concentration of the sample solution was 25 MBq/mL).
(§7) (1) Aβ1-42 (manufactured by Wako) was dissolved in phosphate buffer (pH 7.4) and shaken at 37° C. for 72 hours, to obtain 1 mg/mL of a suspension of aggregated Aβ (hereinafter referred to as amyloid suspension in the Examples).
(§8) (3) A sample solution (30 MBq/mL in radioactivity concentration, Example 24) in which Compound 4 was dissolved in a 10 mg/mL ascorbic acid-containing physiological saline solution and a sample solution (30 MBq/mL in radioactivity concentration, Example 25) in which Compound 6 was dissolved in a 10 mg/mL ascorbic acid-containing physiological saline solution were prepared. This solution was injected under thiopental anesthesia into the rat through the tail vein (dosage: 0.5 mL, dosed radioactivity: 11-15 MBq equivalent).
(§9) Thus, it was confirmed that amyloid was deposited on the slice (FIG. 12 and FIG. 13).

[2] = tested on: amyloid (aggregated Aβ1-42) injected into amygdaloid nucleus; experiment: as above; type: in vivo, rat; conditions: brain slice 60 minutes after intravenous injection
Method: as §1, §2, §3, §4, §5, §6, §7, §8, §9

[3] = partition coefficient based on the octanol extraction method; type: physicochemical; conditions: octanol / 10 mmol/L phosphate buffer pH 7.4; Table 4 (Examples 8-9, Comparative Example 4)
Method: Partition coefficients based on the octanol extraction method (hereinafter referred to as log Poctanol) were measured, which are generally known as an indicator of permeability of compounds through the blood-brain barrier (hereinafter referred to as BBB).
A diethyl ether solution of Compound 1 prepared in Example 3 (Example 8), a diethyl ether solution of Compound 2 prepared in Example 6 (Example 9), and a diethyl ether solution of [^123I]-IMPY prepared in Reference Example 1 (Comparative Example 4) were each diluted with 10 mg/mL ascorbic acid-containing physiological saline solution, and adjusted to a radioactive concentration of 20-30 MBq/mL. To 2 mL of octanol, 10 μL each of the prepared sample solutions was added, 2 mL of 10 mmol/L phosphate buffer (pH 7.4) was added, followed by stirring for 30 seconds. After the mixture was centrifuged with a low-speed centrifuge (2000 rpm×60 min.), the octanol layer and the water layer were sampled each in an amount of 1 mL, and subjected to measurement of radioactivity count with an autowell gamma system (Type: ARC-301B, manufactured by Aloka). Using the obtained radioactivity count, log Poctanol was calculated in accordance with the equation (2).
A diethyl ether solution (Example 20) of Compound 4 prepared in Example 16, a diethyl ether solution (Example 21) of Compound 6 prepared in Example 19, and a diethyl ether solution (Comparative Example 7) of [^123I]-IMPY were each diluted with a 10 mg/mL ascorbic acid-containing physiological saline solution to adjust to a radioactive concentration of 20-30 MBq/mL. To 2 mL of octanol, 10 μL each of the prepared sample solution was added, and 2 mL of 10 mmol/L phosphate buffer (pH 7.4) was further added, followed by stirring for 30 seconds. After the mixture was centrifuged with a low-speed centrifuge (2000 rpm×60 min.), the octanol layer and the water layer were sampled each in an amount of 1 mL, and subjected to measurement of radioactivity count with an autowell gamma system (Type: ARC-301B, manufactured by Aloka). Using the obtained radioactivity count, log Poctanol was calculated in accordance with the equation (4).

[4] = transferability into brain and clearance after intravenous injection; type: in vivo, rat
Method: Using Compound 1 (Example 10) and Compound 2 (Example 11), a time course change of radioactive accumulation in brain of male Wistar rats (7-week old) was measured.
A diethyl ether solution of Compound 1 (Example 10) prepared in Example 3, a diethyl ether solution of Compound 2 (Example 11) prepared in Example 6 and a diethyl ether solution of [^123I]-IMPY (Comparative Example 5) prepared in Reference Example 1 were each diluted with 10 mg/mL ascorbic acid-containing physiological saline solution to adjust to a radioactive concentration of 8-12 MBq/mL. 0.05 mL each of the prepared sample solutions was injected under thiopental anesthesia into the tail vein of the rats. The rats were sacrificed by bleeding from abdominal artery, and brains were removed and subjected to measurement of mass of brains and further subjected to measurement of radioactivity (hereinafter referred to as A in this Example) with a single channel analyzer (detector type: SP-20 manufactured by OHYO KOKEN KOGYO Co., Ltd.) 2, 5, 30 and 60 minutes after the injection. Further, the radioactivity level of the rest of the whole body was measured in the same manner as above (hereinafter referred to as B in this Example). Using these measurement results, radioactive distribution per unit weight of brain (% ID/g) at the respective time points were calculated in accordance with the following formula (3).
Three animals were used for the experiment at the respective time points.
Using Compound 4 and Compound 6, a time course change of radioactive accumulation in brain of male Wistar rats (7-week old) was measured.
Compound 4 (Example 22), Compound 6 (Example 23) and a solution of [^123I]-IMPY (Comparative Example 8) prepared above in Reference Example 1 were each diluted with a 10 mg/mL ascorbic acid-containing physiological saline solution to prepare solutions (20-31 MBq/mL in radioactive concentration). 0.05 mL each of the prepared sample solutions was injected under thiopental anesthesia into the tail vein of the respective Wistar rat (7-week old). The rats were sacrificed by bleeding from abdominal artery, and brains were removed and subjected to measurement of mass of brains and further subjected to measurement of radioactivity (hereinafter referred to as A in this Example) with a single channel analyzer (detector type: SP-20 manufactured by OHYO KOKEN KOGYO Co., Ltd.) 2, 5, 30 and 60 minutes after the injection. Further, the radioactivity level of the rest of the whole body was measured in the same manner as above (hereinafter referred to as B in this Example). Using these measurement results, radioactive distribution per unit weight of brain (% ID/g) at the respective time points were calculated in accordance with the following formula (5).

[5] = tested on: Salmonella typhimurium TA100; experiment: reverse mutation test (Ames test), TA100; type: cell-based
Method: (§10) In order to examine gene mutagenicity of Compound 3, 5 and 8, reverse mutation test using Salmonella typhimurium TA98 and TA100 (hereinafter referred to as Ames test) was conducted.
(§11) The test was conducted without addition of S9mix and with addition of S9mix. Dimethylsulfoxide (DMSO) was used as a negative control. A positive control was 2-(2-furyl)-3-(5-nitro-2-furyl)acrylamide (hereinafter referred to as AF-2) in case S9mix was not added, and 2-aminoanthracene (hereinafter referred to as 2-AA) in case S9mix was added.
(§12) As a sample solution to be added to a test plate, each compound was dissolved in DMSO to prepare a solution at a concentration of 50 mg/mL, and further, each solution was diluted with DMSO to prepare a solution with 7 dosage (geometric ratio 3). As a sample solution for preparing a sample of positive control, when TA98 was used as a test strain without addition of S9mix, a solution of AF-2 (compound concentration: 1 μg/mL) in DMSO was prepared; when TA100 was used as a test strain without addition of S9mix, a solution of AF-2 (compound concentration: 0.1 μg/mL) in DMSO was prepared; when TA98 was used as a test strain with addition of S9mix, a solution of 2-AA (compound concentration: 5 μg/mL) in DMSO was prepared; and when TA100 was used as a test strain with addition of S9mix, a solution of 2-AA (compound concentration: 10 μg/mL) in DMSO was prepared.
(§13) After each sample solution to be examined and a test strain (TA98 or TA100) were mixed together so as to make the addition amount of each sample to be 0.1 mL/plate, the mixture was multilayered using soft agar on a medium of a test plate, and then incubated at 37° C. for 48 hours. Separately, after each sample solution to be examined, S9mix and a test strain were mixed together so as to make the addition amount of each sample to be 0.1 mL/plate, the mixture was multilayered using soft agar on a medium of a test plate, and then incubated at 37° C. for 48 hours. On the other hand, only DMSO was used as a sample solution to perform the same procedure as above for the negative control.

[6] = tested on: Salmonella typhimurium TA98; experiment: reverse mutation test (Ames test), TA98; type: cell-based
Method: as §10, §11, §12, §13

[7] = normal mice, [125I]-labeled, cited from earlier work; for transfer into brain: 2 minutes after administration

Molecule | Mutagenicity, TA100, With addition of S9mix [5] | Mutagenicity, TA100, Without addition of S9mix [5] | Mutagenicity, TA98, With addition of S9mix [6] | Mutagenicity, TA98, Without addition of S9mix [6] | transfer into brain [7] | clearance from normal tissues [7] | also measured
2-(4′-ethoxyphenyl)-6-[^123I]iodoimidazo[1,2-a]pyridine [Compound 2] | – | – | – | – | – | – | accumulation of radioactivity in amygdaloid nucleus on the amyloid-injected side [1]: marked accumulation of radioactivity; accumulation of radioactivity at sites other than the amyloid injected sites [2]: some radioactive accumulation; accumulation of radioactivity in amygdaloid nucleus on the physiological saline-injected side [2]: no significant accumulation of radioactivity; logPoctanol value [3]: 2.1; Radioactive distribution per unit weight in brain, After 2 min. ([4]; male Wistar rats, intravenous injection, 2 min, Table 5): 0.89 % ID/g; Radioactive distribution per unit weight in brain, After 5 min. ([4]; male Wistar rats, intravenous injection, 5 min, Table 5): 0.66 % ID/g; Radioactive distribution per unit weight in brain, After 30 min. ([4]; male Wistar rats, intravenous injection, 30 min, Table 5): 0.13 % ID/g; Radioactive distribution per unit weight in brain, After 60 min. ([4]; male Wistar rats, intravenous injection, 60 min, Table 5): 0.04 % ID/g; radioactive accumulation in brain two minutes after the injection (in words) ([4]; rats, intravenous, 2 min): significant radioactive accumulation; clearance from brain in 60 minutes (in words) ([4]; rats, intravenous, 60 min): rapidly clear away
OCCOc1ccc(-c2cn3cc(I)ccc3n2)cc1 [Compound 3, 2-[4′-(2″-hydroxyethoxy)phenyl]-6-iodoimidazo[1,2-a]pyridine] | Negative | Negative | Negative | Negative | – | – | –
OCCOc1cccc(-c2cn3cc(I)ccc3n2)c1 [Compound 5, 2-[3′-(2″-hydroxyethoxy)phenyl]-6-iodoimidazo[1,2-a]pyridine] | Negative | Negative | Negative | Negative | – | – | –
CCOc1ccc(-c2cn3cc(I)ccc3n2)cc1 [Compound 8, 2-(4′-ethoxyphenyl)-6-iodoimidazo[1,2-a]pyridine] | Negative | Negative | Negative | Negative | – | – | –
CN(C)c1ccc(-c2nc3ccc(I)cc3o2)cc1 [IBOX, 6-iodo-2-[4′-(N,N-dimethylamino)phenyl]benzoxazole] | – | – | – | – | transferred into brain | insufficient in clearance from normal tissues | –
CN(C)c1ccc(-c2nc3ccc(I)cc3s2)cc1 [TZDM, 6-iodo-2-[4′-(N,N-dimethylamino)phenyl]benzothiazole] | – | – | – | – | transferred into brain | insufficient in clearance from normal tissues | –
CN(C)c1ccc(/C=C/c2ccc(I)cc2)cc1 [m-I-SB, (E)-4-dimethylamino-4′-iodostilbene] | – | – | – | – | transferred into brain | insufficient in clearance from normal tissues | –
